Measurements as given in patent US9266883B2, “Ring-fused bicyclic pyridyl derivatives as FGFR4 inhibitors” (Novartis AG, priority 2013, dated 2016).
pIC50: −log10 of the molar value. Where two headings read alike, the source gives them in different places.

Assays:
[1] = tested on: HuH-7 hepatocellular carcinoma cells; assay: CellTiter Glo (CTG) Assay; conditions: Homo sapiens, Huh-7, 72 h, read-out: HUH7 proliferation (nM) CTG
Tel-FGFR4 = Tel-FGFR4 (Homo sapiens (Human), UniProt P22455); assay: In vitro cellular kinase assay for FGFR4 (BaF3-Tel-FGFR4 cells, MSD capture ELISA of tyrosine phosphorylation); type: cell-based
Chain of Tel-FGFR4 (P22455 other isoform, or with tags, fused parts or gaps): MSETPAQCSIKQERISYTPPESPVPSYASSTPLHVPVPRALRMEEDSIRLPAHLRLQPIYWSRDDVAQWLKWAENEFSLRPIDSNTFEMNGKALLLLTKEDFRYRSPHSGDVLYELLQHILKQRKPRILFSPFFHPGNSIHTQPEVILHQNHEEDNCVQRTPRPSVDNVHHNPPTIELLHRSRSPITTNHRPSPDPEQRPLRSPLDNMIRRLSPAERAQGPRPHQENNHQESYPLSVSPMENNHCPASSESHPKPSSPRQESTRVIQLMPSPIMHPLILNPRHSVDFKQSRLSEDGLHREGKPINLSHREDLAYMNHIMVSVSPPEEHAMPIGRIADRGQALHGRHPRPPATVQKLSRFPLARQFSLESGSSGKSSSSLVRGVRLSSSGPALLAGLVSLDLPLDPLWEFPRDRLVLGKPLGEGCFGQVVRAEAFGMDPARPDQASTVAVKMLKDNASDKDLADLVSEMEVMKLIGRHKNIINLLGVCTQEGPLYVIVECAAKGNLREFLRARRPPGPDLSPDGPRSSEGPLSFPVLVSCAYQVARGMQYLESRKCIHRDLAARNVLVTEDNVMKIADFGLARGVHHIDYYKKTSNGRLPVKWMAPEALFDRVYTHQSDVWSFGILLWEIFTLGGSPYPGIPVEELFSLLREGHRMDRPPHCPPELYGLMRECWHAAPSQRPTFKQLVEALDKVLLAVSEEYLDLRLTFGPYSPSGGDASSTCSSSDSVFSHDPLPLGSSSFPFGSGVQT

[2] = molecular target: FGFR4 (GST-FGFR4(388-802)) (Homo sapiens (Human), UniProt P22455); assay: In-vitro biochemical kinase assay for FGFR4 (Caliper microfluidic mobility shift)
Chain of FGFR4 (GST-FGFR4(388-802)) (P22455 388-802): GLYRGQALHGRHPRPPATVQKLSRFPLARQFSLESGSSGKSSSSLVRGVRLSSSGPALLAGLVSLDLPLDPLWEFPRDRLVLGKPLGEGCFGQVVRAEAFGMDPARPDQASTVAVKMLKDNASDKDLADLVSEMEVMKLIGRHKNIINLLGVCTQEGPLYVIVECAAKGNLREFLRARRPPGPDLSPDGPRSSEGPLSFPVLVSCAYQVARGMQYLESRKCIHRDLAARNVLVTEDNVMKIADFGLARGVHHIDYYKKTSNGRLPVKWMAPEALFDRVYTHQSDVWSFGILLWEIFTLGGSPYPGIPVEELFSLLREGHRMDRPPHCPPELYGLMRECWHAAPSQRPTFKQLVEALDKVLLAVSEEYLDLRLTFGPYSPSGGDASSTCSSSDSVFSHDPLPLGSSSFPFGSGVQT

[3] = BaF3-Tel-FGFR4 cells, 1 hour incubation, read-out: Cellular BaF3 FGFR4 IC50
[4] = Cellular BaF3 FGFR4 assay, read-out: Cellular IC50
[5] = biochemical FGFR4 assay, read-out: Biochemical IC50
[6] = read-out: Biochemical FGFR4 IC50

Structure (SMILES) | IC50 [1] | pIC50 (Tel-FGFR4; [4]) | pIC50 [2, 5] | other results
COCCNc1cc(NC(=O)N2CCCc3cc(-c4cccnc4)c(C=O)nc32)ncc1C#N [Example 256, N-(5-cyano-4-((2-methoxyethyl)amino)pyridin-2-yl)-7-formyl-6-(pyridin-3-yl)-3,4-dihydro-1,8-naphthyridine-1(2H)-carboxamide] | 1360 nM |  |  | 
COCCNc1cc(NC(=O)N2CCCc3cc(C(C)N(C)C(C)=O)c(C=O)nc32)ncc1C#N (racemic) [Example 135, N-(5-cyano-4-((2-methoxyethyl)amino)pyridin-2-yl)-7-formyl-6-(1-(N-methylacetamido)ethyl)-3,4-dihydro-1,8-naphthyridine-1(2H)-carboxamide] | 2850 nM |  |  | 
N#Cc1cnc(NC(=O)N2CCCc3ccc(C=O)nc32)cc1OCC1CCCCO1 (racemic) [Example 36, N-(5-cyano-4-((tetrahydro-2H-pyran-2-yl)methoxy)pyridin-2-yl)-7-formyl-3,4-dihydro-1,8-naphthyridine-1(2H)-carboxamide] | > 3000 nM |  |  | 
COCCNc1cc(NC(=O)N2CCCc3cc(CN4CCN(C)C(C)(C)C4=O)c(C=O)nc32)ncc1C#N [Example 245, N-(5-cyano-4-((2-methoxyethyl)amino)pyridin-2-yl)-7-formyl-6-((3,3,4-trimethyl-2-oxopiperazin-1-yl)methyl)-3,4-dihydro-1,8-naphthyridine-1(2H)-carboxamide] | 103 nM |  |  | pIC50 (Tel-FGFR4; [3]): 7.94
CN1CCN(Cc2cc3c(nc2C=O)N(C(=O)Nc2cc(NCCOC(C)(C)C)c(C#N)cn2)CCC3)C(=O)C1 [Example 196, N-(4-((2-(tert-butoxy)ethyl)amino)-5-cyanopyridin-2-yl)-7-formyl-6-((4-methyl-2-oxopiperazin-1-yl)methyl)-3,4-dihydro-1,8-naphthyridine-1(2H)-carboxamide] | 150 nM |  |  | pIC50 (Tel-FGFR4; [3]): 7.74
COCCOc1cc(NC(=O)N2c3nc(C=O)c(CN4CCN(C)CC4=O)cc3CC[C@@H]2C)ncc1C#N [Example 226, (S)-N-(5-cyano-4-(2-methoxyethoxyl)pyridin-2-yl)-7-formyl-2-methyl-6-((4-methyl-2-oxopiperazin-1-yl)methyl)-3,4-dihydro-1,8-naphthyridine-1(2H)-carboxamide] | 134 nM |  |  | 
COCCNc1cc(NC(=O)N2CCCc3cc(CN4CCCC45COC5)c(C=O)nc32)ncc1C#N [Example 193, 6-(2-oxa-5-azaspiro[3.4]octan-5-ylmethyl)-N-(5-cyano-4-((2-methoxyethyl)amino)pyridin-2-yl)-7-formyl-3,4-dihydro-1,8-naphthyridine-1(2H)-carboxamide] | 2780 nM |  |  | 
CC(C)Oc1cc(NC(=O)N2c3nc(C=O)c(CN4CCN(C)CC4=O)cc3CC[C@@H]2C)ncc1C#N [Example 227, (S)-N-(5-cyano-4-isopropoxypyridin-2-yl)-7-formyl-2-methyl-6-((4-methyl-2-oxopiperazin-1-yl)methyl)-3,4-dihydro-1,8-naphthyridine-1(2H)-carboxamide] | 104 nM |  |  | 
COCCNc1cc(NC(=O)N2CCCc3cc(CN4C(=O)COC[C@H]4C)c(C=O)nc32)ncc1C#N [Example 118, (R)-N-(5-cyano-4-((2-methoxyethyl)amino)pyridin-2-yl)-7-formyl-6-((3-methyl-5-oxomorpholino)methyl)-3,4-dihydro-1,8-naphthyridine-1(2H)-carboxamide] | 101 nM |  |  | 
COC(C)(C)CNc1cc(NC(=O)N2CCCc3cc(CN(C)C(C)=O)c(C=O)nc32)ncc1C#N [N-(5-cyano-4-((2-methoxy-2-methylpropyl)amino)pyridin-2-yl)-7-formyl-6-((N-methylacetamido)methyl)-3,4-dihydro-1,8-naphthyridine-1(2H)-carboxamide] |  | 8.31 | 9.15 | 
CCN(Cc1cc2c(nc1C=O)N(C(=O)Nc1cc(NC(C)C)c(C#N)cn1)CCC2)C(=O)CN(C)C [N-(5-cyano-4-(isopropylamino)pyridin-2-yl)-6-((2-(dimethylamino)-N-ethylacetamido)methyl)-7-formyl-3,4-dihydro-1,8-naphthyridine-1(2H)-carboxamide] |  | 7.98 | 9.10 | 
CCCCC(O)c1ccc(NC(=O)N2CCCc3ccc(C=O)nc32)nc1 (racemic) [Example 22, 7-formyl-N-(5-(1-hydroxypentyl)pyridin-2-yl)-3,4-dihydro-1,8-naphthyridine-1(2H)-carboxamide] |  |  |  | pIC50 (Tel-FGFR4; [3]): 5.58; pIC50 [2, 6]: 6.64
CCC(=O)N(C)Cc1cc2c(nc1C=O)N(C(=O)Nc1cc(OC(C)C)c(C#N)cn1)CCC2 [N-(5-cyano-4-isopropoxypyridin-2-yl)-7-formyl-6-((N-methylpropionamido)methyl)-3,4-dihydro-1,8-naphthyridine-1(2H)-carboxamide] |  | 7.73 | 9.05 | pIC50 (Tel-FGFR4; measured and considered as outlier values, not included in the table or list, read-out: IC50 in the cellular BaF3 FGFR4 assay, outlier values): < 5.52
CC(=O)N(C)Cc1cc2c(nc1C=O)N(C(=O)Nc1cc(NCC3CN(C)CCO3)c(C#N)cn1)CCC2 (stereo not shown) [N-(5-cyano-4-(((4-methylmorpholin-2-yl)methyl)amino)pyridin-2-yl)-7-formyl-6-((N-methylacetamido)methyl)-3,4-dihydro-1,8-naphthyridine-1(2H)-carboxamide] |  | 7.68 | 8.59 | 
CCC(=O)N(C)Cc1cc2c(nc1C=O)N(C(=O)Nc1cc(NCCOC)c(C#N)cn1)CCC2 [N-(5-cyano-4-((2-methoxyethyl)amino)pyridin-2-yl)-7-formyl-6-((N-methylpropionamido)methyl)-3,4-dihydro-1,8-naphthyridine-1(2H)-carboxamide] |  | 8.40 | 9.22 | 
CCNc1cc(NC(=O)N2CCCc3cc(CN(C)C(=O)CN(C)C)c(C=O)nc32)ncc1C#N [N-(5-cyano-4-(ethylamino)pyridin-2-yl)-6-((2-(dimethylamino)-N-methylacetamido)methyl)-7-formyl-3,4-dihydro-1,8-naphthyridine-1(2H)-carboxamide] |  | 8.44 | 9.70 | 
CCc1cc(NC(=O)N2CCCc3cc(CN4CCN(C)CC4=O)c(C=O)nc32)ncc1C#N [N-(5-cyano-4-ethylpyridin-2-yl)-7-formyl-6-((4-methyl-2-oxopiperazin-1-yl)methyl)-3,4-dihydro-1,8-naphthyridine-1(2H)-carboxamide] |  | 7.65 | 8.05 | 
CN1CCC2(CCN(c3cc(NC(=O)N4CCCc5cc(CO)c(C=O)nc54)ncc3C#N)CC2)C1 [Example 45, N-(5-cyano-4-(2-methyl-2,8-diazaspiro[4.5]decan-8-yl)pyridin-2-yl)-7-formyl-6-(hydroxymethyl)-3,4-dihydro-1,8-naphthyridine-1(2H)-carboxamide] |  |  |  | pIC50 (Tel-FGFR4; [3]): 7.17; pIC50 [2, 6]: 7.68
CN1CCCC(COc2cc(NC(=O)N3CCCc4cc(CO)c(C=O)nc43)ncc2C#N)C1 (racemic) [Example 73, N-(5-cyano-4-((1-methylpiperidin-3-yl)methoxy)pyridin-2-yl)-7-formyl-6-(hydroxymethyl)-3,4-dihydro-1,8-naphthyridine-1(2H)-carboxamide] | 502 nM |  |  | 
COC[C@@H](C)Oc1cc(NC(=O)N2CCCc3cc(CN4CCCC4=O)c(C=O)nc32)ncc1C#N [(R)-N-(5-cyano-4-((1-methoxypropan-2-yl)oxy)pyridin-2-yl)-7-formyl-6-((2-oxopyrrolidin-1-yl)methyl)-3,4-dihydro-1,8-naphthyridine-1(2H)-carboxamide] |  | 8.64 | 9.52 | 
COCCNc1cc(NC(=O)N2CCCc3cc(-c4cn(C)nc4C)c(C=O)nc32)ncc1C#N [Example 250, N-(5-cyano-4-((2-methoxyethyl)amino)pyridin-2-yl)-6-(1,3-dimethyl-1H-pyrazol-4-yl)-7-formyl-3,4-dihydro-1,8-naphthyridine-1(2H)-carboxamide] |  |  |  | pIC50 (Tel-FGFR4; [3]): 7.84; pIC50 [2, 6]: 8.17
COCCNc1cc(NC(=O)N2CCCc3cc(-c4ccncc4)c(C=O)nc32)ncc1C#N [N-(5-cyano-4-((2-methoxyethyl)amino)pyridin-2-yl)-7-formyl-6-(pyridin-4-yl)-3,4-dihydro-1,8-naphthyridine-1(2H)-carboxamide] |  | 7.84 | 8.51 | 
O=Cc1ccc2c(n1)N(C(=O)Nc1cc(Cl)c(Cl)cn1)CCC2 [Example 2, N-(4,5-dichloropyridin-2-yl)-7-formyl-3,4-dihydro-1,8-naphthyridine-1(2H)-carboxamide] |  |  |  | pIC50 (Tel-FGFR4; [3]): < 5.52; pIC50 [2, 6]: 7.52
COC[C@H](C)Oc1cc(NC(=O)N2CCCc3cc(CN(C)C(C)=O)c(C=O)nc32)ncc1C#N [(S)-N-(5-cyano-4-((1-methoxypropan-2-yl)oxy)pyridin-2-yl)-7-formyl-6-((N-methylacetamido)methyl)-3,4-dihydro-1,8-naphthyridine-1(2H)-carboxamide] |  | 7.92 | 8.40 | 
CC(C)Oc1cc(NC(=O)N2CCCc3cc(CN4CCN(C)CC4=O)c(C=O)nc32)ncc1C#N [Example 92, N-(5-cyano-4-isopropoxypyridin-2-yl)-7-formyl-6-((4-methyl-2-oxopiperazin-1-yl)methyl)-3,4-dihydro-1,8-naphthyridine-1(2H)-carboxamide] |  |  |  | pIC50 (Tel-FGFR4; [3]): 8.48; pIC50 [2, 6]: 9.15
COCCNc1cc(NC(=O)N2CCCc3cc(CN4C(=O)COC[C@@H]4C)c(C=O)nc32)ncc1C#N [Example 120, (S)-N-(5-cyano-4-((2-methoxyethyl)amino)pyridin-2-yl)-7-formyl-6-((3-methyl-5-oxomorpholino)methyl)-3,4-dihydro-1,8-naphthyridine-1(2H)-carboxamide] | 160 nM |  |  | 
CC(C)Oc1cc(NC(=O)N2CCCc3cc(CN4CCCC4)c(C=O)nc32)ncc1C#N [N-(5-cyano-4-isopropoxypyridin-2-yl)-7-formyl-6-(pyrrolidin-1-ylmethyl)-3,4-dihydro-1,8-naphthyridine-1(2H)-carboxamide] |  | 6.07 | 7.58 | 
